The results in this text go back to EP0034754A1, “2-((3-amino-2-hydroxy-propoxy)-styryl) isoxazoles, process for their preparation and pharmaceutical compositions containing them” (BASF Aktiengesellschaft, priority 1980, dated 1981).

For orientation: LD50 means the dose expected to kill half of the subjects tested.

The first series deals with Isoproterenol-Tachycardie. Put plainly: ß-sympatholytic effect: inhibition of isoproterenol-induced tachycardia in despinalised rats. The following applies: Rattus norvegicus, iv, 5 min, read-out: ß-Sympatholytische Wirkung Ratte i.v. ED 50 %. The class given is in vivo. The procedure: ß-sympatholytische Wirkung: • An despinalisierten Ratten (Stamm: Sprague Dawley, männlich, Gewicht 200 bis 240 g) verursacht Isoproterenol (0,1/ug/kg intravenös) Herfrequenzsteigerungen um durchschnittlich 121 + 2,1 min bei einer Ausgangsfrequenz von 268 + 3,9 min^-1 (Anzahl der Tiere N = 100). ß-Sympatholytika hemmen diese Frequenzsteigerungen spezifisch und dosisabhängig. Die Applikation der getesteten Substanzen erfolgt 5 min vor der Isoproterenolgabe.
Als ED 50 % werden die Dosen ermittelt, welche die Isoproterenol-Tachycardie um 50 % hemmen.
Als Referenzsubstanz dient das bekannte ß-Sympatholytikum Propranolol.
Consider `CC(C)NCC(O)COc1cccc2ccccc12` (stereo not drawn) [Propranolol, reference compound], for which the ED50 stood at 0.0127 mg/kg.

The same series, now with this note: Rattus norvegicus, iv, 5 min; despinalised Sprague Dawley rats, i.v., given 5 min before isoproterenol 0,1 µg/kg i.v.; dose inhibiting tachycardia by 50 %; read-out: ß-Sympatholytische Wirkung Ratte i.v. ED 50 %.
For the molecule `COCc1cc(C=Cc2ccccc2OCC(O)CNC(C)C)on1` (stereo not drawn) [Beispiel 3, 3-Methoxymethyl-5-[2-(2-hydroxy-3-isopropylamino-propoxy)--styryl]-isoxazol], the ED50 was determined as 0.0064 mg/kg.
Same read-out and setting: the figure for `COCc1cc(C=Cc2ccccc2OCC(O)CNC(C)(C)C)on1` (stereo not drawn) [Beispiel 4, 3-Methoxymethyl-5-[2-(2-hydroxY-3-tert.-butylamino-prop-oxy)-styryl]-isoxazol] is 0.00742 mg/kg.
Consider `COCc1cc(C=Cc2ccccc2OCC(O)CNC2CC2)on1` (stereo not drawn) [Beispiel 9, 5-[2-(2-Hydroxy-3-cyclopropylamino-propoxy)-styryl]-3-methoxymethyl-isoxazol], for which the ED50 came out at 0.01 mg/kg.
Same read-out and setting: the figure for `Cc1noc(C=Cc2ccccc2OCC(O)CNC(C)(C)C)c1Cl` (stereo not drawn) [Beispiel 16, 4-Chlor-3-methyl-5-[2-(2-hydroxy-3-tert.-butylamino-prop-oxy)-styryl]-isoxazol] is 0.01 mg/kg; for `Cc1noc(C=Cc2ccccc2OCC(O)CNC(C)C)c1Cl` (stereo not drawn) [Beispiel 17, 4-Chlor-3-methyl-5-[2-(2-hydroxy-3-isopropylamino-prop-oxy)-styryl]-isoxazol] it is 0.00681 mg/kg.

The subject of another series is mittleren Carotisdruck. Put plainly: Blood-pressure-lowering effect in the anaesthetised rat (urethane), carotid pressure. It counts as in vivo, Ratte. The conditions noted are these: Rattus norvegicus, iv; Sprague Dawley rats under urethane anaesthesia, i.v.; dose lowering mean carotid pressure by 20 %; read-out: Blutdrucksenkende Wirkung Ratte i.v. ED 20 %. The text has this:
Blutdrucksenkende Wirkung an der narkotisierten Ratte: • Zur Feststellung der blutdrucksenkenden Wirkung erhalten männliche Ratten (Stamm: Sprague Dawley, Gewicht: 230 bis 280 g) in Urethan-Narkose (1,78 g/kg intraperitoneal) die Prüfsubstanzen intravenös appliziert. Die Messung des Blutdruckes in der Aorta carotis erfolgt über Statham--Transducer.
Als ED 20 % wird die Dosis ermittelt, welche den mittleren Carotisdruck um 20 % senkt.
As for `COCc1cc(C=Cc2ccccc2OCC(O)CNC(C)C)on1` (stereo not drawn) [Beispiel 3, 3-Methoxymethyl-5-[2-(2-hydroxy-3-isopropylamino-propoxy)--styryl]-isoxazol], the ED20 turned out to be 1 mg/kg.
The same measure, in the same setting: then `COCc1cc(C=Cc2ccccc2OCC(O)CNC(C)(C)C)on1` (stereo not drawn) [Beispiel 4, 3-Methoxymethyl-5-[2-(2-hydroxY-3-tert.-butylamino-prop-oxy)-styryl]-isoxazol], with 1 mg/kg; and `Cc1noc(C=Cc2ccccc2OCC(O)CNC(C)(C)C)c1Cl` (stereo not drawn) [Beispiel 16, 4-Chlor-3-methyl-5-[2-(2-hydroxy-3-tert.-butylamino-prop-oxy)-styryl]-isoxazol], with 1 mg/kg.
For `Cc1noc(C=Cc2ccccc2OCC(O)CNC(C)C)c1Cl` (stereo not drawn) [Beispiel 17, 4-Chlor-3-methyl-5-[2-(2-hydroxy-3-isopropylamino-prop-oxy)-styryl]-isoxazol], the ED20 worked out at 1.95 mg/kg.

The series is the same for the next values; noted with them: rat, i.v., up to a dose of 2,15 mg/kg.
With `CC(C)NCC(O)COc1cccc2ccccc12` (stereo not drawn) [Propranolol, reference compound], the “Blutdrucksenkende Wirkung” value is “senkt den Blutdruck bis zu einer Dosis von 2,15 mg/kg nicht”.

Tested on in the next series: not listed separately
Briefly: in vivo.
Details: not given
Consider `COCc1cc(C=Cc2ccccc2OCC(O)CNC(C)C)on1` (stereo not drawn) [Beispiel 3, 3-Methoxymethyl-5-[2-(2-hydroxy-3-isopropylamino-propoxy)--styryl]-isoxazol], for which the selectivity ratio amounted to 18900.
As to `COCc1cc(C=Cc2ccccc2OCC(O)CNC(C)(C)C)on1` (stereo not drawn) [Beispiel 4, 3-Methoxymethyl-5-[2-(2-hydroxY-3-tert.-butylamino-prop-oxy)-styryl]-isoxazol], the selectivity ratio came out at 13500.
In the case of `COCc1cc(C=Cc2ccccc2OCC(O)CNC2CC2)on1` (stereo not drawn) [Beispiel 9, 5-[2-(2-Hydroxy-3-cyclopropylamino-propoxy)-styryl]-3-methoxymethyl-isoxazol], the selectivity ratio is 12100.
Consider `Cc1noc(C=Cc2ccccc2OCC(O)CNC(C)(C)C)c1Cl` (stereo not drawn) [Beispiel 16, 4-Chlor-3-methyl-5-[2-(2-hydroxy-3-tert.-butylamino-prop-oxy)-styryl]-isoxazol], for which the selectivity ratio was 14700.
For `Cc1noc(C=Cc2ccccc2OCC(O)CNC(C)C)c1Cl` (stereo not drawn) [Beispiel 17, 4-Chlor-3-methyl-5-[2-(2-hydroxy-3-isopropylamino-prop-oxy)-styryl]-isoxazol], the selectivity ratio amounted to 75000.

The series is the same for the next values; noted with them: mouse, ip.
For the molecule `COCc1cc(C=Cc2ccccc2OCC(O)CNC(C)C)on1` (stereo not drawn) [Beispiel 3, 3-Methoxymethyl-5-[2-(2-hydroxy-3-isopropylamino-propoxy)--styryl]-isoxazol], the LD50 is 121 mg/kg.
In the case of `COCc1cc(C=Cc2ccccc2OCC(O)CNC(C)(C)C)on1` (stereo not drawn) [Beispiel 4, 3-Methoxymethyl-5-[2-(2-hydroxY-3-tert.-butylamino-prop-oxy)-styryl]-isoxazol], the LD50 was 100 mg/kg.
In the case of `COCc1cc(C=Cc2ccccc2OCC(O)CNC2CC2)on1` (stereo not drawn) [Beispiel 9, 5-[2-(2-Hydroxy-3-cyclopropylamino-propoxy)-styryl]-3-methoxymethyl-isoxazol], the LD50 turned out to be 121 mg/kg.
Turning to `Cc1noc(C=Cc2ccccc2OCC(O)CNC(C)(C)C)c1Cl` (stereo not drawn) [Beispiel 16, 4-Chlor-3-methyl-5-[2-(2-hydroxy-3-tert.-butylamino-prop-oxy)-styryl]-isoxazol], the LD50 turned out to be 147 mg/kg.
In turn, `Cc1noc(C=Cc2ccccc2OCC(O)CNC(C)C)c1Cl` (stereo not drawn) [Beispiel 17, 4-Chlor-3-methyl-5-[2-(2-hydroxy-3-isopropylamino-prop-oxy)-styryl]-isoxazol] came in with an LD50 of 511 mg/kg.
